Values quoted from earlier work, collected in US20080234349A1, “PPAR active compounds” (priority 2005, published 2008).

Assays:
PPARδ = molecular target: T1, PPARδ (Homo sapiens, UniProt Q03181)
T1 sequence (Q03181 1-441): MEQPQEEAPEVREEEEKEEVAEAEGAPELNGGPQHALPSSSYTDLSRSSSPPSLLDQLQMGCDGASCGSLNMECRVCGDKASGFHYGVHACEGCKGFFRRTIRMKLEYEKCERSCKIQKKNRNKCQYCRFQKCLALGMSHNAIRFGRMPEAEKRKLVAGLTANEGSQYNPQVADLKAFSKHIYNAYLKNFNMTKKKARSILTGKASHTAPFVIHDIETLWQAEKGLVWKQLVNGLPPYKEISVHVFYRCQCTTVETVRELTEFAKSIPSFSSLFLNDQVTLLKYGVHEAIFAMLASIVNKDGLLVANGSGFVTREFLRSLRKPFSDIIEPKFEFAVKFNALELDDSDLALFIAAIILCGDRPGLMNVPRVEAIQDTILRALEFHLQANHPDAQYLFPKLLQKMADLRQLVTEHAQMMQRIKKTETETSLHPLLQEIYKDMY

murine PPARα = molecular target: T2, murine PPARα (Mus musculus, UniProt P23204)
T2 sequence (P23204 1-468): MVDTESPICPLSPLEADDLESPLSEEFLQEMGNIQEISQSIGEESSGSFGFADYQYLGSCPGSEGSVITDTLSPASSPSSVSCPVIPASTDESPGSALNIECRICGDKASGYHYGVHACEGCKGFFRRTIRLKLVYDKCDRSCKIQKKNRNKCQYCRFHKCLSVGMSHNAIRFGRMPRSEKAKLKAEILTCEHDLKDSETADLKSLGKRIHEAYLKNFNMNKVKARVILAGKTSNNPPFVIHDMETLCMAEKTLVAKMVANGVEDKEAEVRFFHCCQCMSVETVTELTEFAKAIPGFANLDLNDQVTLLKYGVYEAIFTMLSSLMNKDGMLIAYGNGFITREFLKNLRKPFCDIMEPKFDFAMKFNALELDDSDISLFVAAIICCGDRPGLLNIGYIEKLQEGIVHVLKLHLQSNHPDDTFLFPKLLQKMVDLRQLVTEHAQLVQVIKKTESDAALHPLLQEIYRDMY

[1] = recent large prospective trial, patients

CCCc1c(OCCCOc2ccc(OCC(=O)O)cc2)ccc(C(C)=O)c1O [Compound L-165041]
agonist selectivity for PPARδ over PPARγ (PPARδ): approximately 30 fold
activity on murine PPARα (murine PPARα): inactive

Cc1ccc(C)c(OCCCC(C)(C)C(=O)O)c1 [gemfibrozil]
reduction in cardiovascular events or death [1]: 22%
